Values after ≈ are worked out from the molar mass of the structure shown.
Columns and labels:
[1] = target: T1, human FAAH (Homo sapiens, UniProt O00519); experiment: FAAH inhibition assay; type: biochemical
T1 sequence (O00519 1-579): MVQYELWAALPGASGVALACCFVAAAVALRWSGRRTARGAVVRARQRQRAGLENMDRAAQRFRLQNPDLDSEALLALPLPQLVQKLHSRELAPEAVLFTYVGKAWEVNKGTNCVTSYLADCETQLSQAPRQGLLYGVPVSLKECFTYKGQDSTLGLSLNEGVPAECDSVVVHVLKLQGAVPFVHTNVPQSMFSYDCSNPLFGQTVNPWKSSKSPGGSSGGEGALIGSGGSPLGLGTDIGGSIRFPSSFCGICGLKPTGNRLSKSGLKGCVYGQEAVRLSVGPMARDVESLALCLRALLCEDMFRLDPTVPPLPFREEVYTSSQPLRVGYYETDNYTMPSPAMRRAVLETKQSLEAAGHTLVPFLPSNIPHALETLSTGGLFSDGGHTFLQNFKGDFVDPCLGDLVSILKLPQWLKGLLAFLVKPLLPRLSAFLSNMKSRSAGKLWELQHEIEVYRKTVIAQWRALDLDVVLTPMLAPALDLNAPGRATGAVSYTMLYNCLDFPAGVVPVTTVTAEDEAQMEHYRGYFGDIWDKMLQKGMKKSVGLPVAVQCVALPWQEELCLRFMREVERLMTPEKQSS

[2] = target: T2, human sEH (Homo sapiens, UniProt P34913); experiment: sEH inhibition assay; type: biochemical
T2 sequence (P34913 1-555): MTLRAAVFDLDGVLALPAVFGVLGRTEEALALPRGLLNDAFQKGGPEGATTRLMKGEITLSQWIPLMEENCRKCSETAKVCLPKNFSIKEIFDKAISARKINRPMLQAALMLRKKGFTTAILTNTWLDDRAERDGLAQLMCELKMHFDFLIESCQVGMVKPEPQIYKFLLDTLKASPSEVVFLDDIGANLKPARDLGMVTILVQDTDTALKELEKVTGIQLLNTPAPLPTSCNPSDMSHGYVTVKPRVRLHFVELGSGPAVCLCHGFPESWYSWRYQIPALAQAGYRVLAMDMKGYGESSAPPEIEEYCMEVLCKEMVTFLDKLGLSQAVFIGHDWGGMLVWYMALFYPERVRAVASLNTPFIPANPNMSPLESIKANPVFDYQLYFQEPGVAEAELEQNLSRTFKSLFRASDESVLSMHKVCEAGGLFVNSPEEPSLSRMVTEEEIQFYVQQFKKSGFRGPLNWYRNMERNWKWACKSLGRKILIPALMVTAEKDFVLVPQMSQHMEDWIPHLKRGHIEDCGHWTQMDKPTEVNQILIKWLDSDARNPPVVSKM

[3] = target: T3, mouse sEH (Mus musculus, UniProt P34914); experiment: sEH inhibition assay; type: biochemical
T3 sequence (P34914 1-554): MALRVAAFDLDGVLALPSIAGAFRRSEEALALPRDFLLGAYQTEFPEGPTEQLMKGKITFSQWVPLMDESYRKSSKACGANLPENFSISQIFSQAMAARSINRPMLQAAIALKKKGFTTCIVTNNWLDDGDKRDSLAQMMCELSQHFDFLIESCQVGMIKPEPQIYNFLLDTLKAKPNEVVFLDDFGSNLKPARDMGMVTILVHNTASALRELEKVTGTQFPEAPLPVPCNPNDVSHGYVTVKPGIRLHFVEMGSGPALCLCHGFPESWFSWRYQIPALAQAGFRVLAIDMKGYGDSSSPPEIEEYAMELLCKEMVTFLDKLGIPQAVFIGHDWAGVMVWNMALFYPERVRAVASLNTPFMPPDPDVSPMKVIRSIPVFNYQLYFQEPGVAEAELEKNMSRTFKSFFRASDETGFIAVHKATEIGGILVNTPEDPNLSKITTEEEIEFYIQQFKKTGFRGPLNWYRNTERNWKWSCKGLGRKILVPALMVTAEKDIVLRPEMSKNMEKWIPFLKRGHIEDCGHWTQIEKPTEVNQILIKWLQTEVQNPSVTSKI

[4] = target: T4, rat sEH (Rattus norvegicus, UniProt P80299); experiment: sEH inhibition assay; type: biochemical
T4 sequence (P80299 1-554): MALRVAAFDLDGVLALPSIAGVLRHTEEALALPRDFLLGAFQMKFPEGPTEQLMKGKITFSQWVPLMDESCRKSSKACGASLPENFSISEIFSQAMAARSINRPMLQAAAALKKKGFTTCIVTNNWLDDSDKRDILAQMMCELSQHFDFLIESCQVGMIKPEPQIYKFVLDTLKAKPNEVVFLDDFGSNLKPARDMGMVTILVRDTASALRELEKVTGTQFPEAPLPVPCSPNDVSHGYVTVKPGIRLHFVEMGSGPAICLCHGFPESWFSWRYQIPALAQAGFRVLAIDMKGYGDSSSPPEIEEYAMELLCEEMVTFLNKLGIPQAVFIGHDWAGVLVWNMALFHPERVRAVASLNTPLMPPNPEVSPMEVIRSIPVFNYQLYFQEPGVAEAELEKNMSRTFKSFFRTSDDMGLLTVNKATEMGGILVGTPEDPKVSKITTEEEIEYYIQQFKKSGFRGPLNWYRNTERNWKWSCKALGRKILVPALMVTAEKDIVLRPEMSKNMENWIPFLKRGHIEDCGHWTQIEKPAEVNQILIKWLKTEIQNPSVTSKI

[5] = Solubility assay; type: physicochemical; conditions: sodium phosphate buffer, pH 7.4, aqueous buffer, kinetic from dmso stock
[6] = target: T5, microsomal EH (Homo sapiens, UniProt P07099); experiment: Microsomal EH inhibition; type: biochemical; conditions: see Supplemental Data
T5 sequence (P07099 1-455): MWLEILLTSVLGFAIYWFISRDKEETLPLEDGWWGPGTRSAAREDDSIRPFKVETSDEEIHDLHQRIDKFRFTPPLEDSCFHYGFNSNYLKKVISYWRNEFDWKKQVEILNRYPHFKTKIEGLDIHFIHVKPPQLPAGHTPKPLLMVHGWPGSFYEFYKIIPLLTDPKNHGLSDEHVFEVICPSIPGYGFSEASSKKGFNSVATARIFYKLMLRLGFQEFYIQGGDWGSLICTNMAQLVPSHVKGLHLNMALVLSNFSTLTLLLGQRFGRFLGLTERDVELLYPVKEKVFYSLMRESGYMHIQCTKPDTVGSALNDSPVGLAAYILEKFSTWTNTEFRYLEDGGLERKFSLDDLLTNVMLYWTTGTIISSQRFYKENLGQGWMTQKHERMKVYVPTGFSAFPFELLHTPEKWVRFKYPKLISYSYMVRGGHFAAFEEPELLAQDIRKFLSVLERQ

[7] = target: T6, EH3 (Homo sapiens, UniProt Q9H6B9); experiment: EH3 inhibition; type: biochemical; conditions: see Supplemental Data
T6 sequence (Q9H6B9 1-360): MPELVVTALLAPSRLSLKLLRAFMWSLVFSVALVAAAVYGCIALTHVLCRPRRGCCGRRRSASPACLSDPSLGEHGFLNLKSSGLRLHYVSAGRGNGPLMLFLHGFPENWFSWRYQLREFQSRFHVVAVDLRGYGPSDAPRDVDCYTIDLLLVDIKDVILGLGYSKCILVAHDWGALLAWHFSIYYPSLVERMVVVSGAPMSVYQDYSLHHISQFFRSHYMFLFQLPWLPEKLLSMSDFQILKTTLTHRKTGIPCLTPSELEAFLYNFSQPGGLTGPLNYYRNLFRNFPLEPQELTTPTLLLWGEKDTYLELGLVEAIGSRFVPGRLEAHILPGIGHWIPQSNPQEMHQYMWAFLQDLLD

## COc1cn2c(-c3ccc(NC(=O)C4CCN(S(=O)(=O)c5ccccc5Cl)CC4)cc3)nnc2c(OC)n1 [Compound 4r, 1-((2-chlorophenyl)sulfonyl)-N-(4-(6,8-dimethoxy-[1,2,4]triazolo[4,3-a]pyrazin-3-yl)phenyl)piperidine-4-carboxamide]
[1]
  IC50: > 10000 nM
[2]
  IC50: 19.4 nM
[3]
  IC50: 9 nM
[4]
  IC50: 21.8 nM
[5]
  solubility: 31 to 63 µM (≈ 17.3 to 35.1 µg/mL)
[6]
  inhibition of microsomal EH: does not inhibit
[7]
  inhibition of EH3: does not inhibit

— paper PMC12814486 (Bioorganic & medicinal chemistry, 2025)
